How the values were obtained:
[1] = Half life in Sprague-Dawley rat at 1 mg/kg, iv; assay type: ADME, organism-based; details: in vivo
[2] = Volume of distribution at steady state in Sprague-Dawley rat at 1 mg/kg, iv; assay type: ADME, organism-based; details: in vivo, read-out: Vdss
Rattus norvegicus = assay: Chronotropic effect in isoflurane-anesthetized male naive Sprague-Dawley rat model assessed as increase in heart rate at 5 mg/kg/min, iv measured after 60 mins; assay type: functional; details: 1 h
Nav1.5 = Nav1.5 (Homo sapiens, UniProt Q14524); assay: Inhibition of human Nav1.5 at 10 uM by patch clamp assay relative to control
Chain of Nav1.5 (Q14524 whole entry): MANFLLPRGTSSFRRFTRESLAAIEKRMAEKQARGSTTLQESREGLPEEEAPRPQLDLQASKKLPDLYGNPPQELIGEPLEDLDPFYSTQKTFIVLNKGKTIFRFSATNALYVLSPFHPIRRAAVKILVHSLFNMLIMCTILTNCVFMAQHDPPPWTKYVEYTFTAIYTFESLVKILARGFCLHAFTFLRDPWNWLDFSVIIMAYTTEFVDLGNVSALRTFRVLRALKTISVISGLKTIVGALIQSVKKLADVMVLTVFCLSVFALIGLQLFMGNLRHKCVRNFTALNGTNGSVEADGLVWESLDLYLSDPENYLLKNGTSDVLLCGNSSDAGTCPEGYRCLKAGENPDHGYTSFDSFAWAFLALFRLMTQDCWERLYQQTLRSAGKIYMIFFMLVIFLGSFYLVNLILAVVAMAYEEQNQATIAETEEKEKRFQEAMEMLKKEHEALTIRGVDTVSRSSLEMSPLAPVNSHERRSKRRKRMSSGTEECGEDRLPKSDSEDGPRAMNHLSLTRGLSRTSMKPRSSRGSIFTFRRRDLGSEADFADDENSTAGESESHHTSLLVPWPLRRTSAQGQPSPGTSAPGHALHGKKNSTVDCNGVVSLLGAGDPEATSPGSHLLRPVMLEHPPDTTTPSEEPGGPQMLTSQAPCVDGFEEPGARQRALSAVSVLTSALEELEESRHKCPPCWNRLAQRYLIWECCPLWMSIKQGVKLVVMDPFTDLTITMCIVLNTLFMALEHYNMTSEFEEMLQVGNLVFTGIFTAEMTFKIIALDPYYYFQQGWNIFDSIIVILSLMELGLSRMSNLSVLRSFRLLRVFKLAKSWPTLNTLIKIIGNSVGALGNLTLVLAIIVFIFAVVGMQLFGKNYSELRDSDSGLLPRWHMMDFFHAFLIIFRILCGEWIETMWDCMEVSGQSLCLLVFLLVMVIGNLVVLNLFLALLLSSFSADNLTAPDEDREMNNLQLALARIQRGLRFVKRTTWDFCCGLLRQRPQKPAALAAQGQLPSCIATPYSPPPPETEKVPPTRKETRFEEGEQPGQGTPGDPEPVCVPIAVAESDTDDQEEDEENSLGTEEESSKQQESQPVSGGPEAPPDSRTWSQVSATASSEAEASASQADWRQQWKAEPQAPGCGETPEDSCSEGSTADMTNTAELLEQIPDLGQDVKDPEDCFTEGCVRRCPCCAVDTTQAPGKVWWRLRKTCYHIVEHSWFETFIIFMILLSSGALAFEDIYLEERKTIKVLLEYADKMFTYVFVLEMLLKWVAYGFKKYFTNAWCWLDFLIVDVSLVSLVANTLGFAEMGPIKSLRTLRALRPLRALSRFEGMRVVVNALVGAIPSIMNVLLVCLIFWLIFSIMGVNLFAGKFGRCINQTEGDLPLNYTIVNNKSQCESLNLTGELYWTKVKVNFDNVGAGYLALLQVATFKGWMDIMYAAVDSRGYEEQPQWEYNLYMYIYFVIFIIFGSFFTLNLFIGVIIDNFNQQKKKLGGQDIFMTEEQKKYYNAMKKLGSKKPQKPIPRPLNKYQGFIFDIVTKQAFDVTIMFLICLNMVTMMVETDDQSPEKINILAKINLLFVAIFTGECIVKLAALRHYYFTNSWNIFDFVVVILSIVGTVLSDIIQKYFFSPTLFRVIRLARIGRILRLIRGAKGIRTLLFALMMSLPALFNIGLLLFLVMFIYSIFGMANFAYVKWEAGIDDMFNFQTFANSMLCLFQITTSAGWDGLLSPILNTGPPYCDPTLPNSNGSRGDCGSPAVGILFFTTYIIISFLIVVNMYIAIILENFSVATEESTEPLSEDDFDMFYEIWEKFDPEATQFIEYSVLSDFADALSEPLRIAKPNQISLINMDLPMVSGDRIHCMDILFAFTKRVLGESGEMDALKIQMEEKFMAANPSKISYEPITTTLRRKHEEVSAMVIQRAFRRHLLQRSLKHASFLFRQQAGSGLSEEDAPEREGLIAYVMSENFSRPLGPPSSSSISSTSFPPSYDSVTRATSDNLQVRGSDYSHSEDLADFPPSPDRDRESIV

hERG = hERG (Homo sapiens, UniProt Q12809); assay: Inhibition of hERG (unknown origin) at 30 uM by patch clamp assay relative to control
Chain of hERG (Q12809 whole entry): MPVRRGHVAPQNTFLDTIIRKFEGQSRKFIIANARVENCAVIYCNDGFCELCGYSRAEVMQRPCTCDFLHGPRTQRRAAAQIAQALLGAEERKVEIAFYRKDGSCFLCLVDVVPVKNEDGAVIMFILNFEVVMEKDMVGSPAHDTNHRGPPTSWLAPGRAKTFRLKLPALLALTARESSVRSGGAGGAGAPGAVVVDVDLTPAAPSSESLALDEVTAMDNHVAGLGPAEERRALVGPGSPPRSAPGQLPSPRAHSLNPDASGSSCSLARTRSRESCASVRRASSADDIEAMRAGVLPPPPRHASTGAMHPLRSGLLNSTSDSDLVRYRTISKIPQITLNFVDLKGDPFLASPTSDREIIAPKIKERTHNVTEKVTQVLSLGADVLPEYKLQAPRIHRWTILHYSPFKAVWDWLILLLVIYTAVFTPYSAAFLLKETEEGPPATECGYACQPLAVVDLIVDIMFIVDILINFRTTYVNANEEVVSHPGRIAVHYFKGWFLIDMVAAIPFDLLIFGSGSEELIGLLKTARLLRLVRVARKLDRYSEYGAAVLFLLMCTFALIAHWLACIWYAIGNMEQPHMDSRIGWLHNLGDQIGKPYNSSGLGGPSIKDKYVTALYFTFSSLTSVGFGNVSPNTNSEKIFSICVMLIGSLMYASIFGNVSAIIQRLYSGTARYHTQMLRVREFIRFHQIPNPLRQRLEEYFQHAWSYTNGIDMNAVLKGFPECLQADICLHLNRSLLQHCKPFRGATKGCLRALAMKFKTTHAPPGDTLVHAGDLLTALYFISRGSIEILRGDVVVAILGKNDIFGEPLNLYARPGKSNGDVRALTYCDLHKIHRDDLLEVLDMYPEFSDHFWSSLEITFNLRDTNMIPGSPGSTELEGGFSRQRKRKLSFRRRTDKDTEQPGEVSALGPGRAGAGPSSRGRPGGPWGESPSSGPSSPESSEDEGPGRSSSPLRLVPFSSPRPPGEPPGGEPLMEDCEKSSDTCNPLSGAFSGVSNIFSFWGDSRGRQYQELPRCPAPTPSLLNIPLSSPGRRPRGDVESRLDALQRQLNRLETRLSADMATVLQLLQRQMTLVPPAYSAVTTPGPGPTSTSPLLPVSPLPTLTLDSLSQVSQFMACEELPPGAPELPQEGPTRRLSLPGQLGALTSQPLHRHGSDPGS

Cytochrome P450 2C8 = target: T1, Cytochrome P450 2C8 (Homo sapiens, UniProt P10632); assay: Inhibition of CYP2C8 (unknown origin)
T1 sequence (P10632 whole entry): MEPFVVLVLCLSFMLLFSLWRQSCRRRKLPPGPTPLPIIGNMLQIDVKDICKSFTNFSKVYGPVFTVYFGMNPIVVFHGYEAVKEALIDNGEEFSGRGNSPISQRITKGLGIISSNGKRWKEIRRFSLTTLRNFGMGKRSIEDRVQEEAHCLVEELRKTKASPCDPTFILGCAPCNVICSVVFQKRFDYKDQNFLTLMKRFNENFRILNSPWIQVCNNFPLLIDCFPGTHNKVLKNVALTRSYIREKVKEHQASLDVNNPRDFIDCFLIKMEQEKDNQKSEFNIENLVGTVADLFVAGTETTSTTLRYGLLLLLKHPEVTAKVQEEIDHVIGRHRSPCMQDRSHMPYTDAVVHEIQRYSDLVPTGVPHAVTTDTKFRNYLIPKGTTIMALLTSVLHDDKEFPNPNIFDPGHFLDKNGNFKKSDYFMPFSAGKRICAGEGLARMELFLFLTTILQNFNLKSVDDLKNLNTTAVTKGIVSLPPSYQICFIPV

Cytochrome P450 3A4 = Cytochrome P450 3A4 (Homo sapiens, UniProt P08684); assay: Inhibition of CYP3A4 (unknown origin)
Mus musculus = assay: Expansion of interpubic ligament in estrogen-treated female C57BL/6 mouse assessed as symphysis widening at 25 mg/kg, iv administered on day 7 and measured on day 8 by microCT analysis (reference value: 17.6 %); assay type: functional; details: time 1 day
[3] = Microsomal stability in mouse liver microsomes assessed as half life; assay type: ADME, Microsome
[4] = Microsomal stability in human liver microsomes assessed as half life; assay type: ADME, Microsome
[5] = Microsomal stability in rat liver microsomes assessed as half life; assay type: ADME, Microsome
Cytochrome P450 2C9 = Cytochrome P450 2C9 (Homo sapiens, UniProt P11712); assay: Inhibition of CYP2C9 (unknown origin)
Chain of Cytochrome P450 2C9 (P11712 whole entry): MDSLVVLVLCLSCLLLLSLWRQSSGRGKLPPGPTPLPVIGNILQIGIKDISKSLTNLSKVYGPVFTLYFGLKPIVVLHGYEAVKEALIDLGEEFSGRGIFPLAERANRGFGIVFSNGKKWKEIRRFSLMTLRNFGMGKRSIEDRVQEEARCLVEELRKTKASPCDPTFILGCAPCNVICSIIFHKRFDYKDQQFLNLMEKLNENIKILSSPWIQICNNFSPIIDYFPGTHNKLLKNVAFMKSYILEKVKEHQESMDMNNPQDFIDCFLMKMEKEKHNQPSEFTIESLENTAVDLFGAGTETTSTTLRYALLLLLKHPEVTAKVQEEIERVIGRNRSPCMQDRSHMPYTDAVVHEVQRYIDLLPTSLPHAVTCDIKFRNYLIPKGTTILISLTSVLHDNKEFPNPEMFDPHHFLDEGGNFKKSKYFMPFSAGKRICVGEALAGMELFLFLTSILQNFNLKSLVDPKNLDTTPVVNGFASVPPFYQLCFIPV

Cytochrome P450 1A2 = target: T2, Cytochrome P450 1A2 (Homo sapiens, UniProt P05177); assay: Inhibition of CYP1A2 (unknown origin)
T2 sequence (P05177 whole entry): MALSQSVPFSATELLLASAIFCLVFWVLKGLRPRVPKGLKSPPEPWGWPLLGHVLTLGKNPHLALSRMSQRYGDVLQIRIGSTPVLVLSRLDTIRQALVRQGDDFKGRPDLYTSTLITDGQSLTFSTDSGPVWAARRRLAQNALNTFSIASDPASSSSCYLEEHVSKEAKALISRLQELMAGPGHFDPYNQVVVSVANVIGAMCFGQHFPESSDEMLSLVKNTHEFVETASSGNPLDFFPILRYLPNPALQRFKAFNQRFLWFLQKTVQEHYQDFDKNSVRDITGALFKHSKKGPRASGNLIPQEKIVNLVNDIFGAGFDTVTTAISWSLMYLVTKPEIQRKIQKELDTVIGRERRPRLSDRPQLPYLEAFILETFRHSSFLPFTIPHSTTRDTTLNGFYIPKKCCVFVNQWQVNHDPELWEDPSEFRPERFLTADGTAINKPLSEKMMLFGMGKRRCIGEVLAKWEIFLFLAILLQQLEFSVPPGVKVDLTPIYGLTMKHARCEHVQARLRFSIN

[6] = Total AUC in Sprague-Dawley rat at 1 mg/kg, iv; assay type: ADME, organism-based; details: in vivo
Cytochrome P450 2D6 = Cytochrome P450 2D6 (Homo sapiens, UniProt P10635); assay: Inhibition of CYP2D6 (unknown origin)
Chain of Cytochrome P450 2D6 (P10635 whole entry): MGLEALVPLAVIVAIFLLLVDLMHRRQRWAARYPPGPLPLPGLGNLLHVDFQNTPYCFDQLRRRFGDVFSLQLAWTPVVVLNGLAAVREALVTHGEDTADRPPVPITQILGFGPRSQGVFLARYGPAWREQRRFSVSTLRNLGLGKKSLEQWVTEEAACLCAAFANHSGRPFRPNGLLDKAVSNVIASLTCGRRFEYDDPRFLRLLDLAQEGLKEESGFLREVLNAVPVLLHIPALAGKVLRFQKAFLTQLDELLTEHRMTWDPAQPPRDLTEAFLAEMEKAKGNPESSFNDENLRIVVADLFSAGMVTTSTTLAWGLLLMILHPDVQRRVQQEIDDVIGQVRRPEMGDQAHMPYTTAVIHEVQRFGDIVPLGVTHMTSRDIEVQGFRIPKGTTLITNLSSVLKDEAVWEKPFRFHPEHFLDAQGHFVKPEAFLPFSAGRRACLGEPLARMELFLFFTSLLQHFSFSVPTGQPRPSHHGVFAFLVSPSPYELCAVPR

Relaxin receptor 1 = target: T3, Relaxin receptor 1 (Mus musculus, UniProt Q6R6I7); assay: Agonist activity at mouse RXFP1 stably expressed in HEK293 cells assessed as intracellular cAMP accumulation incubated for 30 mins by HTRF assay; assay type: functional, cell-based
T3 sequence (Q6R6I7 whole entry): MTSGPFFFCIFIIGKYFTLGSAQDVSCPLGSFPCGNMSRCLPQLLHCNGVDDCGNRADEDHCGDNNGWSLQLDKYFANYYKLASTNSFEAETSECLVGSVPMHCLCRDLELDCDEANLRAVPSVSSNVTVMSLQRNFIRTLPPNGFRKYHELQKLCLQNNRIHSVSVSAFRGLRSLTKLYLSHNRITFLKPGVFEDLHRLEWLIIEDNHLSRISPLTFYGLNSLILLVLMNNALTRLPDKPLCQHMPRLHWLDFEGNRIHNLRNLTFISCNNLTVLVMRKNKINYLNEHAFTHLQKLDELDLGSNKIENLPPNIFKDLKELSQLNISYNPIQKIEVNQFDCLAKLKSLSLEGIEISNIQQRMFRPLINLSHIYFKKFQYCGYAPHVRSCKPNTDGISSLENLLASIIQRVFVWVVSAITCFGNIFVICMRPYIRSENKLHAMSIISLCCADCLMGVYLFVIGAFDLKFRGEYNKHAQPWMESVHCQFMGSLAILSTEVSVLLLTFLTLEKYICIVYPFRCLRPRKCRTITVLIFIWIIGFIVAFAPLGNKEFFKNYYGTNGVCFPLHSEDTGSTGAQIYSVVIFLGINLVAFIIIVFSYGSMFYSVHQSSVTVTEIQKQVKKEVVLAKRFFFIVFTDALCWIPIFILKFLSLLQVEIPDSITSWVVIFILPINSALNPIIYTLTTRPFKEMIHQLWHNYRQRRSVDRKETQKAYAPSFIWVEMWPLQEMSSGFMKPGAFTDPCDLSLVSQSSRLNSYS

Cytochrome P450 2C19 = Cytochrome P450 2C19 (Homo sapiens, UniProt P33261); assay: Inhibition of CYP2C19 (unknown origin)
Chain of Cytochrome P450 2C19 (P33261 whole entry): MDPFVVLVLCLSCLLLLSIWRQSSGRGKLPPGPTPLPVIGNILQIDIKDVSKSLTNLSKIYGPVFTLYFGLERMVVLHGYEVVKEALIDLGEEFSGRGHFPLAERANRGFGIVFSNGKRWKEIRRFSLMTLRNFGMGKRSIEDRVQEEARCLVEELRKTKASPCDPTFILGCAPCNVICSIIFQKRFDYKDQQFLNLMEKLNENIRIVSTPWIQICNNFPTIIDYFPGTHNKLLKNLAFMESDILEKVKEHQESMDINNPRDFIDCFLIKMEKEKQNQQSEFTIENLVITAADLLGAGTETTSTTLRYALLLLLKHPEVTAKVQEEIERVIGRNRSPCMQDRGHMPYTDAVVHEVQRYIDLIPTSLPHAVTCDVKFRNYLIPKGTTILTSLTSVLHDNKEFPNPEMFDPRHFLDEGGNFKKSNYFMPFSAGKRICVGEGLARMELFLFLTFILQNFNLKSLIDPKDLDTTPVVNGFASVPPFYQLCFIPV

half-life [1]: 4.43 h | Vd [2]: 0.09 L/kg | IC50 (Cytochrome P450 2C8): 2.6 µM | IC50 (Cytochrome P450 3A4): > 20 µM | half-life [3]: > 2 h | half-life [4]: > 2 h | half-life [5]: > 2 h | IC50 (Cytochrome P450 2C9): 4 µM | IC50 (Cytochrome P450 1A2): 4.6 µM | AUC [6]: 9.6 µM·h | IC50 (Cytochrome P450 2D6): > 20 µM | EC50 (Relaxin receptor 1): 0.03 µM | IC50 (Cytochrome P450 2C19): 17 µM
Structure (SMILES): CNC(=O)OC(C(=O)O)c1ccc(F)c(-c2ccc(OC)c(C(=O)N[C@H]3[C@@H](C(=O)Nc4ccc(F)c(C(F)(F)F)c4)[C@H]4CC[C@@H]3/C4=C\C3CC3)c2)c1 (stereo in doubt; 39)
Activity (Rattus norvegicus): 25% | inhibition at 10 µM (Nav1.5): 59% | inhibition at 30 µM (hERG): 7% | Activity (Mus musculus): 500.4%
